Measured values taken from BindingDB's records for doi:10.1021/acsmedchemlett.9b00354 (Bristol-Myers Squibb, 2019).

Test: Effect on ZAP70 phosphorylation in human Jurkat cells pre-incubated for 30 mins followed by anti-CD3/CD28 stimulation measured after 10 mins

| Compound | EC50 [nM] |
| --- | --- |
| CCc1cc(NC(=O)c2nn(C3CCN(C(=O)NC(C)(C)C)CC3)c3ccccc23)ccc1-c1n[nH]c(=O)c(C)c1C | 420 |
| CCc1cc(NC(=O)c2nn(C3CCN(C(=O)NC(C)(C)C)CC3)c3ccccc23)ccc1-c1cc(C)c(=O)[nH]n1 | 2700 |
| COc1ccc2c(C(=O)Nc3ccc(NC(=O)c4nn(C5CCN(C(=O)NC(C)(C)C)CC5)c5ccc(F)cc45)cc3Cl)cnn2c1 | 56 |
| Cc1cc(NC(=O)c2nn(C3CCN(C(=O)CC(C)(C)C#N)CC3)c3ccccc23)ccc1NC(=O)c1cnn2ccccc12 | 88 |
| CC(C)(C)NC(=O)N1CCC(n2nc(C(=O)Nc3ccc(-c4ccc(=O)[nH]n4)c(Cl)c3)c3ccccc32)CC1 | 5700 |
| CCc1cc(NC(=O)c2nn(C3CCN(C(=O)NC(C)(C)C)CC3)c3ccccc23)ccc1-c1n[nH]c(=O)cc1C | 2000 |
| CC(C)(C)NC(=O)N1CCC(n2nc(C(=O)Nc3ccc(NC(=O)c4cnn5ccccc45)cc3)c3ccccc32)CC1 | 1400 |
| COc1ccc2c(C(=O)Nc3ccc(NC(=O)c4nn(C5CCN(C(=O)CC(C)(C)C#N)CC5)c5ccc(F)cc45)cc3Cl)cnn2c1 | 41 |
| COc1ccc2c(C(=O)Nc3ccc(NC(=O)c4nn(C5CCN(C(=O)NC(C)(C)C)CC5)c5ccccc45)cc3C)cnn2c1 | 28 |
| CC(C)(C)NC(=O)N1CC(Cn2nc(C(=O)Nc3ccc(-c4ccc(=O)[nH]n4)c(Cl)c3)c3ccccc32)C1 | 7900 |
| Cc1cc(=O)[nH]nc1-c1ccc(NC(=O)c2nn(C3CCN(C(=O)NC(C)(C)C)CC3)c3ccccc23)cc1Cl | 4050 |
| CC(C)(C)NC(=O)N1CCC(n2nc(C(=O)Nc3ccc(NC(=O)c4cnn5ccccc45)c(Cl)c3)c3ccccc32)CC1 | 49 |
| Cc1cc(NC(=O)c2nn(C3CCN(C(=O)NC(C)(C)C)CC3)c3ccccc23)ccc1NC(=O)c1cnn2ccccc12 | 42 |
| COc1ccc2c(C(=O)Nc3ccc(NC(=O)c4nn(C)c5ccccc45)cc3C)cnn2c1 | > 20000 |
